The values that follow come from patent US12168085B2, “Surgical system and methods of use” (priority 2021, dated 2024).

In series [1] the test system is myofibroblast formation. The conditions noted are these: Ajmal et al. (2003); cited from earlier work.
The nature of series [2]: time to reach plasma concentrations. Conditions: when given preoperatively. Format: in vivo.

SMILES strings stand for the structures.

`O=S(=O)([O-])CCS.[Na+]` [MESNA, sodium 2-mercaptoethane sulfonate]: the “effect on myofibroblast formation” value in series [1] was “diminish myofibroblast formation”. For `NC[C@H]1CC[C@H](C(=O)O)CC1` [tranexamic acid, trans-4-(aminomethyl)cyclohexanecarboxylic acid], the “time to reach plasma concentrations” value in series [2] was in the range of 5 to 15 min.
